How the values were obtained:
[1] = human, plasma, 3 h, 20 µM
[2] = pampa, 5 h
in vitro = details: CD1, mouse
[3] = Stability of compound in human plasma assessed as half life at 20 uM incubated for 3 hrs by LC-MS (SIM) assay; format: ADME, cell-free

Row | Structure (SMILES) | Stabilty [1] | permeability [2] | half-life at 4 h, 10 µM (in vitro; liver microsomes) | other results
1 | COc1cccc(S(=O)(=O)N(CC(=O)O)c2cccc(-n3ncc(C(=O)O)c3[C@H]3C[C@@H]3c3ccccc3)c2)c1 (relative stereo) | Stable | < 2% | 240 min | –
2 | CCCCC1CCCN1C(=O)[C@@H]1CCC[C@H](c2cccc(-n3ncc(C(=O)O)c3C3CC3)c2)C1 (some centres not stated) | Stable | – | – | –
3 | CCN(CC)CCOC(=O)c1ccc(N)cc1 [PROCAINE] | – | – | – | half-life at 20 µM [3]: 2 min
4 | O=C(O)CN(c1cccc(-n2ncc(C(=O)O)c2C2CC2)c1)S(=O)(=O)c1ccccc1 | – | < 2% | 240 min | –
5 | CC(C)NCC(O)COc1cccc2ccccc12 (configuration not stated) [PROPRANOLOL] | – | – | – | half-life at 4 h, 10 µM (in vitro; microsomes): 37 min

The next lines start with results.

Row | Stabilty [1] | permeability [2] | half-life at 4 h, 10 µM (in vitro; liver microsomes) | Structure (SMILES) | other results
6 | Stable | < 2% | 240 min | O=C(O)c1cnn(-c2cccc(NS(=O)(=O)c3ccccc3)c2)c1C1CC1 | –
7 | – | < 2% | – | CNC(=O)c1cnn(-c2cccc(NS(=O)(=O)c3ccccc3)c2)c1C1CC1 | –
